A word on the IC50: it is the concentration that gives 50% inhibition. One may read the Ki as a measure of affinity in units of concentration, obtained from inhibition or displacement.

Experiment [1] has as its target T1, BCLXL (Homo sapiens, UniProt Q07817, V10N/V9A). Kind of experiment: AlphaLISA assay (BIM peptide displacement). It is filed as binding. Conditions: 20 pM protein, 1 nM peptide. The procedure:
AlphaLISA assay measures an increase in alpha signal upon binding biotinylated GST(1-218)-(FACTOR_XA)-hs ? (2-209)(SEQ ID:02—GST UniProtKB® primary accession number P08515 and BCLXL UniProtKB® primary accession number Q07817-1) coupled to a Streptavidin labeled Alpha donor bead to N-terminally labeled peptide derived from BIM (Fluorescein-betaAla-Ahx-SEQID:05, wherein SEQ ID:05 is […]) coupled to an Anti-FTIC AlphaLISA acceptor bead.
GST(1-218)(FACTOR_XA)-hs ? (2-209) was biotinylated in 50 mM phosphate buffer using a 20 fold excess of EZ Link NHS-LC-Biotin (thermoFisher catalogue number 21336) overnight at 4° C.
The addition of a compound which binds competitively to the same site as the peptide will result in an decrease in the Alpha signal of the available donor bead-protein-peptide-acceptor bead complex due to displacement of the peptide.
An 11-point serial dilution of each compound was prepared in DMSO, the final buffer conditions were 10 mM 4-(2-hydroxyethyl)-1-piperazineethanesulfonic acid [HEPES], 150 mM NaCl, 0.05% Tween 20, pH 7.4 and 4% DMSO. The final protein concentration in the assay was 20 pM with the peptide present at 1 nM). Alpha beads were used at a final concentration of 5 ug/mL. The experiments were incubated for overnight at 23° C. after acceptor bead addition. Finally the donor bead is added and incubated for 2 hours at 23° C. before Alpha signal measured on a Biotek Synergy2 plate reader (Excitation 680 nm, emission 615 nm).
A general note: In Alpha technology, singlet oxygen from a donor bead excites a nearby acceptor bead.

In experiment [2] the target is T1, BCLXL. As to the kind of experiment: Fluorescence polarisation assay (PUMA-based probe displacement). Note: 20 nM protein, 10 nM fluorescent probe. Format: binding. (Fluorescence polarisation rises when a labelled molecule tumbles more slowly, as on binding a larger partner.)
The subject of the next experiment is H146 cells. As to the kind of experiment: H146 cell viability, MTT assay. It is filed as cell-based. Conditions: Homo sapiens, NCI-H146, 48 h, 48 h exposure. An outline of the steps:
(§1)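 Cells grown in RPMI 1640 with 10% heat-inactivated FBS at 37° C, 5% CO2, exposed 48 h to nine 3.16-fold serial compound dilutions in triplicate. MTT added for 4 h, SDS/HCl solubilisation overnight, absorbance at 540 nm; IC50 by four-parameter fit.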

The test system of a further experiment is MOLT-4 cells. As to the kind of experiment: MOLT-4 cell viability, MTT assay. Format: cell-based. Particulars: Homo sapiens, MOLT-4, 48 h, 48 h exposure. An outline of the steps:
as §1

T1 sequence (Q07817 with tags, fused parts or gaps V9A/V10N): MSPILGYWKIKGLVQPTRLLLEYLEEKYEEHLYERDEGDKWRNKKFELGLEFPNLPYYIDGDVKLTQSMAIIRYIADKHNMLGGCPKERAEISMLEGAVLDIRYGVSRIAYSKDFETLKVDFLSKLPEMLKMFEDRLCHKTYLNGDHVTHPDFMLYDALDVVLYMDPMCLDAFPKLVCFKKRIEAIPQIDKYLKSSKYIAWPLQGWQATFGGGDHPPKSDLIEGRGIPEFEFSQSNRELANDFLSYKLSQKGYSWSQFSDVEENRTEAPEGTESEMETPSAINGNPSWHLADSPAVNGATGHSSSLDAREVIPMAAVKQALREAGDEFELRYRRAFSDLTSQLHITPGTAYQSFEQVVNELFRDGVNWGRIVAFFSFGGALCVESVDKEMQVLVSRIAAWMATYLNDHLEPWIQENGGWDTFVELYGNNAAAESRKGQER

Consider `Cc1cc(N(C)c2nc(C(=O)O)c(C3CCN(C(=O)Cc4ccccc4)CC3)s2)nnc1Nc1nc2ccccc2s1` [Example 96, 2-({6-[(1,3-Benzothiazol-2-yl)amino]-5-methylpyridazin-3-yl}(methyl)amino)-5-[1-(2-phenylacetyl)piperidin-4-yl]-1,3-thiazole-4-carboxylic acid], for which, at BCLXL [1], the IC50 stood at 270 nM. Besides, the inhibitory constant (Ki) at BCLXL [2] was 220 nM.
In the same order, the values of `CC(=O)N1CCC(c2sc(N(C)c3cc(C)c(Nc4nc5ccccc5s4)nn3)nc2C(=O)O)CC1` [Example 97, 5-(1-Acetylpiperidin-4-yl)-2-({6-[(1,3-benzothiazol-2-yl)amino]-5-methylpyridazin-3-yl}(methyl)amino)-1,3-thiazole-4-carboxylic acid] are 210 nM and 130 nM.
On to `CNCC#Cc1ccc(OCCCc2sc(N(CCCC(CO)OC)c3cc(C)c(Nc4nc5ccccc5s4)nn3)nc2C(=O)O)c(F)c1` (stereo not drawn) [Example 112, 2-[[6-(1,3-Benzothiazol-2-ylamino)-5-methyl-pyridazin-3-yl]-(5-hydroxy-4-methoxy-pentyl)amino]-5-[3-[2-fluoro-4-[3-(methylamino)prop-1-ynyl]phenoxy]propyl]thiazole-4-carboxylic acid], for which the IC50 on BCLXL [1] came out at 0.028 nM; in the experiment on H146 cells, 30.9 nM; in the experiment on MOLT-4 cells, 77.5 nM.
In the same order, the values of `CNCC#Cc1ccc(OCCCc2sc(N(CCCC(O)CN3CCOCC3)c3cc(C)c(Nc4nc5ccccc5s4)nn3)nc2C(=O)O)c(F)c1` (stereo not drawn) [Example 113, 2-[[6-(1,3-Benzothiazol-2-ylamino)-5-methyl-pyridazin-3-yl]-(4-hydroxy-5-morpholino-pentyl)amino]-5-[3-[2-fluoro-4-[3-(methylamino)prop-1-ynyl]phenoxy]propyl]thiazole-4-carboxylic acid] are 0.028 nM, 13 nM and 25.7 nM.
In the same order, the values of `CNCC#Cc1ccc(OCCCc2sc(N(CC(CO)N3CCOCC3)c3cc(C)c(Nc4nc5ccccc5s4)nn3)nc2C(=O)O)c(F)c1` (stereo not drawn) [Example 115, 2-[[6-(1,3-Benzothiazol-2-ylamino)-5-methyl-pyridazin-3-yl]-(3-hydroxy-2-morpholino-propyl)amino]-5-[3-[2-fluoro-4-[3-(methylamino)prop-1-ynyl]phenoxy]propyl]thiazole-4-carboxylic acid] are 0.089 nM, above 150 nM and above 150 nM.
`Cc1ccc(S(=O)(=O)N(C)CC#Cc2ccc(OCCCc3sc(N(CCC(O)CO)c4cc(C)c(Nc5nc6ccccc6s5)nn4)nc3C(=O)O)c(F)c2)cc1` (stereo not drawn) [Example 120, 2-[[6-(1,3-Benzothiazol-2-ylamino)-5-methyl-pyridazin-3-yl]-(3,4-dihydroxybutyl)amino]-5-[3-[2-fluoro-4-[3-[methyl(p-tolylsulfonyl)amino]prop-1-ynyl]phenoxy]propyl]thiazole-4-carboxylic acid]: the figures for the IC50 at BCLXL [1], in the experiment with H146 cells and in the experiment with MOLT-4 cells were 0.099 nM, 280 nM and 557 nM, respectively.
Regarding `COCC(O)CCCN(c1cc(C)c(Nc2nc3ccccc3s2)nn1)c1nc(C(=O)O)cs1` (stereo not drawn) [Example 132, 2-[[6-(1,3-Benzothiazol-2-ylamino)-5-methyl-pyridazin-3-yl]-(4-hydroxy-5-methoxy-pentyl)amino]thiazole-4-carboxylic acid], the IC50 at BCLXL [1] is 7.7 nM.
Same read-out and setting: under `COC(CO)CCCN(c1cc(C)c(Nc2nc3ccccc3s2)nn1)c1nc(C(=O)O)cs1` (stereo not drawn) [Example 133, 2-[[6-(1,3-Benzothiazol-2-ylamino)-5-methyl-pyridazin-3-yl]-(5hydroxy-4-methoxy-pentyl)amino]thiazole-4-carboxylic acid] stands 8.9 nM.
Regarding `Cc1cc(N(C)c2nc(C(=O)O)c(C3CN(C(=O)OC(C)(C)C)C3)s2)nnc1Nc1nc2ccccc2s1` [Example 135, 2-({6-[(1,3-Benzothiazol-2-yl)amino]-5-methylpyridazin-3-yl}(methyl)amino)-5-{1-[(tert-butoxy)carbonyl]azetidin-3-yl}-1,3-thiazole-4-carboxylic acid], the concentration for half-maximal inhibition (IC50) at BCLXL [1] is 3.9 nM; in the experiment on H146 cells, 5290 nM; with MOLT-4 cells, 3240 nM.
As for `Cc1cc(N(C)c2nc(C(=O)O)c(C3CN(C(=O)c4ccccc4)C3)s2)nnc1Nc1nc2ccccc2s1` [Example 136, 5-(1-Benzoylazetidin-3-yl)-2-({6-[(1,3-benzothiazol-2-yl)amino]-5-methylpyridazin-3-yl}(methyl)amino]-1,3-thiazole-4-carboxylic acid], the IC50 on BCLXL [1] turned out to be 7.7 nM.
On to `Cc1cc(N(C)c2nc(C(=O)O)c(CC(C)(C)COc3ccc(C#CCN(C)C)cc3F)s2)nnc1Nc1nc2ccccc2s1` [Example 137, 2-({6-[(1,3-Benzothiazol-2-yl)amino]-5-methylpyridazin-3-yl}(methyl)amino)-5-(3-{4-[3-(dimethylamino)prop-1-yn-1-yl]-2-fluorophenoxy}-2,2-dimethylpropyl)-1,3-thiazole-4-carboxylic acid], for which the concentration for half-maximal inhibition (IC50) came to 0.27 nM on BCLXL [1], 320 nM in the experiment with H146 cells and 61.4 nM with MOLT-4 cells.
Turning to `Cc1cc(N(C)c2nc(C(=O)O)c(C3CN(C(=O)Cc4ccccc4)C3)s2)nnc1Nc1nc2ccccc2s1` [Example 138, 2-({6-[(1,3-Benzothiazol-2-yl)amino]-5-methylpyridazin-3-yl}(methyl)amino)-5-[1-(2-phenylacetyl)azetidin-3-yl]-1,3-thiazole-4-carboxylic acid], the IC50 at BCLXL [1] amounted to 11 nM. Moreover, on BCLXL [2], the inhibition constant (Ki) worked out at 29 nM.
On to `Cc1cc(N(C)c2nc(C(=O)O)c(C3CNC3)s2)nnc1Nc1nc2ccccc2s1` [Example 139, 5-(Azetidin-3-yl)-2-({6-[(1,3-benzothiazol-2-yl)amino]-5-methylpyridazin-3-yl}(methyl)amino)-1,3-thiazole-4-carboxylic acid], for which, at BCLXL [1], the IC50 came to 270 nM. The Ki at BCLXL [2] came to 640 nM.
In the same order, the values of `Cc1cc(N(CCCC(O)CN(C)CCN(C)C)c2nc(C(=O)O)cs2)nnc1Nc1nc2ccccc2s1` (stereo not drawn) [Example 142, 2-[[6-(1,3-Benzothiazol-2-ylamino)-5-methyl-pyridazin-3-yl]-[5-[2-(dimethylamino)ethyl-methyl-amino]-4-hydroxy-pentyl]amino]thiazole-4-carboxylic acid] are 10 nM and 50 nM.
As to `Cc1cc(N(CCCC(O)CN(C)C)c2nc(C(=O)O)cs2)nnc1Nc1nc2ccccc2s1` (stereo not drawn) [Example 143, 2-[[6-(1,3-Benzothiazol-2-ylamino)-5-methyl-pyridazin-3-yl]-[5-(dimethylamino)-4-hydroxy-pentyl]amino]thiazole-4-carboxylic acid], the IC50 on BCLXL [1] amounted to 22 nM.
For `Cc1cc(N(C)c2nc(C(=O)O)c(C3CN(Cc4ccccc4)C3)s2)nnc1Nc1nc2ccccc2s1` [Example 145, 2-({6-[(1,3-Benzothiazol-2-yl)amino]-5-methylpyridazin-3-yl}(methyl)amino)-5-(1-benzylazetidin-3-yl)-1,3-thiazole-4-carboxylic acid], the IC50 at BCLXL [1] was 190 nM. Besides, the Ki at BCLXL [2] came to 180 nM.
On to `Cc1cc(N(CCCCO)c2nc(C(=O)O)c(CCCOc3ccc(C#CCN(C)CCCS(=O)(=O)O)cc3F)s2)nnc1Nc1nc2ccccc2s1` [Example 151, 2-[[6-(1,3-Benzothiazol-2-ylamino)-5-methyl-pyridazin-3-yl]-(4-hydroxybutyl)amino]-5-[3-[2-fluoro-4-[3-[methyl(3-sulfopropyl)amino]prop-1-ynyl]phenoxy]propyl]thiazole-4-carboxylic acid], for which the IC50 was 0.005 nM at BCLXL [1] and 194 nM in the experiment with MOLT-4 cells. Besides, the Ki on BCLXL [2] is below 1 nM.
Consider `CC(=O)N1CC(c2sc(N(C)c3cc(C)c(Nc4nc5ccccc5s4)nn3)nc2C(=O)O)C1` [Example 152, 5-(1-Acetylazetidin-3-yl)-2-({6-[(1,3-benzothiazol-2-yl)amino]-5-methylpyridazin-3-yl}(methyl)amino)-1,3-thiazole-4-carboxylic acid], for which the IC50 at BCLXL [1] amounted to 2.3 nM.
The same measure, in the same setting: under `Cc1cc(N(C)c2nc(C(=O)O)c(C3CN(c4ccccc4)C3)s2)nnc1Nc1nc2ccccc2s1` [Example 153, 2-({6-[(1,3-Benzothiazol-2-yl)amino]-5-methylpyridazin-3-yl}(methyl)amino)-5-(1-phenylazetidin-3-yl)-1,3-thiazole-4-carboxylic acid] stands 80 nM.
Regarding `C/C(=C\c1sc(N(C)c2cc(C)c(Nc3nc4ccccc4s3)nn2)nc1C(=O)O)COc1ccccc1` [Example 162, 2-({6-[(1,3-Benzothiazol-2-yl)amino]-5-methylpyridazin-3-yl}(methyl)amino)-5-[(1E)-2-methyl-3-phenoxyprop-1-en-1-yl]-1,3-thiazole-4-carboxylic acid], the IC50 at BCLXL [1] came to 1.9 nM; with H146 cells it was 6590 nM; in the experiment with MOLT-4 cells, 3170 nM.

The values above are taken from patent US12649733B2, “3,6-diamino-pyridazin-3-yl derivatives, pharmaceutical compositions containing them and their uses as pro-apoptotic agents” (LES LABORATOIRES SERVIER, priority 2019, dated 2026).
